From US11046671B2, “Dihydropyrimidinyl benzazepine carboxamide compounds” (Hoffmann-La Roche Inc., priority 2016, dated 2021)

Tests used:
human TLR7 = human TLR7 (Homo sapiens (Human), UniProt Q9NYK1); assay: HEK-Blue human TLR7 cells, NF-κB SEAP reporter assay; format: cell-based; conditions: 20 hours stimulation
Text: (§1) For TLR8 and TLR7 activity testing, HEK-Blue human TLR8 or TLR7 cells (Invivogen, San Diego, Calif., USA) are used, respectively. These cells are designed for studying the stimulation of human TLR8 or TLR7 by monitoring the activation of NF-κB. A SEAP (secreted embryonic alkaline phosphatase) reporter gene is placed under the control of the IFN-b minimal promoter fused to five NF-κB and AP-1-binding sites. Therefore the reporter expression is regulated by the NF-κB promoter upon stimulation of human TLR8 or TLR7 for 20 hours. The cell culture supernatant SEAP reporter activity was determined using Quanti Blue kit (Invivogen, San Diego, Ca, USA) at a wavelength of 640 nm, a detection medium that turns purple/blue in the presence of alkaline phosphatase. EC50 values were determined using Activity Base analysis (ID Business Solution, Limited).

human TLR8 = human TLR8 (Homo sapiens (Human), UniProt Q9NR97); assay: HEK-Blue human TLR8 cells, NF-κB SEAP reporter assay; format: cell-based; conditions: 20 hours stimulation
Text: as §1

human TLR7, sequence (Q9NYK1 27-1049): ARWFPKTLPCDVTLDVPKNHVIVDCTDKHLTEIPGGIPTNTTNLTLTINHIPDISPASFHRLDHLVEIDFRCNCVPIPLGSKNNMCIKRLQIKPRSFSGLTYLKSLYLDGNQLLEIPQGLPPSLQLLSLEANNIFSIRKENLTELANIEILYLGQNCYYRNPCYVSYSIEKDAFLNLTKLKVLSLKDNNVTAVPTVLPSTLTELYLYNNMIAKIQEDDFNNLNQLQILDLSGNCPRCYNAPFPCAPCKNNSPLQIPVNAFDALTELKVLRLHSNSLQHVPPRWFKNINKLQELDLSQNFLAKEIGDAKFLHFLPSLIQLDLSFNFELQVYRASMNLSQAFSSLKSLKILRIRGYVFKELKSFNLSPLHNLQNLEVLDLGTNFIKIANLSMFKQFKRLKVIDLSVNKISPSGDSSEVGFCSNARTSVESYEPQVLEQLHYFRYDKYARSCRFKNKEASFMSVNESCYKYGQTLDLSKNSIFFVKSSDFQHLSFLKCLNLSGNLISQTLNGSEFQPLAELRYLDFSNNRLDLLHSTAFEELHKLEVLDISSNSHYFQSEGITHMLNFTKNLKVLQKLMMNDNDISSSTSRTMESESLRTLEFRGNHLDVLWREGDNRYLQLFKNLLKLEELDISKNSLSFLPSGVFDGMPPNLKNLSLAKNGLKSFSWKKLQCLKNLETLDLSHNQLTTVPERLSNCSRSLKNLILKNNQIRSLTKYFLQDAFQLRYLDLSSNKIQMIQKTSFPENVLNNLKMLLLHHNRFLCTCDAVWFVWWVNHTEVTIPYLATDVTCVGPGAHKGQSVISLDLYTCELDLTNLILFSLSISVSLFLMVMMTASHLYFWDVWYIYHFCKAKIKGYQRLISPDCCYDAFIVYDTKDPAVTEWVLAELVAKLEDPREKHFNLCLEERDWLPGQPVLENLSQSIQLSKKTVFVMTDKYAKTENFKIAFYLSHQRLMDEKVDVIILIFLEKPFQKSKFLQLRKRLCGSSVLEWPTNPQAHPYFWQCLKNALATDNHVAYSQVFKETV
human TLR8, sequence (Q9NR97 27-1041): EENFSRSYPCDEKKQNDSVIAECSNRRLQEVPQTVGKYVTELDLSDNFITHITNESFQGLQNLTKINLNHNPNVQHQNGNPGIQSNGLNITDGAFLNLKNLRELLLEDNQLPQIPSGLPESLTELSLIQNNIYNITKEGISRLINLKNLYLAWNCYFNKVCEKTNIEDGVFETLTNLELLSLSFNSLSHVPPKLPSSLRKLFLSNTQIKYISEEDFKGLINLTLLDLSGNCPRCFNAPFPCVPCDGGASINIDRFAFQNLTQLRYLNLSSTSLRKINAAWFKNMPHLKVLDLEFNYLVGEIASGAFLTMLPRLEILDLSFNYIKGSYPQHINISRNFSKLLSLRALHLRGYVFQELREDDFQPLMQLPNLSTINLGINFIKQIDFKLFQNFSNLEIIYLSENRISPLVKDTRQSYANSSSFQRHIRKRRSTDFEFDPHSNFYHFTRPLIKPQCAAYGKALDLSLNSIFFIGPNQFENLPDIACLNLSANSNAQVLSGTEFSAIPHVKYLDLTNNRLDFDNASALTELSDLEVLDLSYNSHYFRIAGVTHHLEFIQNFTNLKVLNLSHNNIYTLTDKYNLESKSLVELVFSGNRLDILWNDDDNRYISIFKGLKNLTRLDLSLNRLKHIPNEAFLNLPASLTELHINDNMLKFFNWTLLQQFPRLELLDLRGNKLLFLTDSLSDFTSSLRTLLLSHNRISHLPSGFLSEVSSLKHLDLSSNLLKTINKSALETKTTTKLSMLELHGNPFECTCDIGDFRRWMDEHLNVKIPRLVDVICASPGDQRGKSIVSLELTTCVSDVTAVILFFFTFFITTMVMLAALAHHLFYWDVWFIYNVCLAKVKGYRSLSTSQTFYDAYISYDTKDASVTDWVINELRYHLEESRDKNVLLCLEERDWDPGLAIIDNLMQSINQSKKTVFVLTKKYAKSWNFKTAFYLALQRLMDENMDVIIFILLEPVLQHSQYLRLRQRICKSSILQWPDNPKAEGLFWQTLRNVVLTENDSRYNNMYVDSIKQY

CCCN(CCC)C(=O)C1=Cc2ccc(C3=NCc4c(C)cccc4N3)cc2N=C(N)C1 [Example 9, 2-Amino-8-(5-methyl-1,4-dihydroquinazolin-2-yl)-N,N-dipropyl-3H-1-benzazepine-4-carboxamide]
EC50 (human TLR7): > 100000 nM | EC50 (human TLR8): 1 nM

CCCN(CCC)C(=O)C1=Cc2ccc(C3=NCc4cc(Cl)ccc4N3)cc2N=C(N)C1 [Example 8, 2-Amino-8-(6-chloro-1,4-dihydroquinazolin-2-yl)-N,N-dipropyl-3H-1-benzazepine-4-carboxamide]
EC50 (human TLR7): > 100000 nM | EC50 (human TLR8): 6 nM

CCCN(CCC)C(=O)C1=Cc2ccc(C3=NCc4ccc(Cl)cc4N3)cc2N=C(N)C1 [Example 6, 2-Amino-8-(7-chloro-1,4-dihydroquinazolin-2-yl)-N,N-dipropyl-3H-1-benzazepine-4-carboxamide]
EC50 (human TLR7): > 100000 nM | EC50 (human TLR8): 9 nM

CCCN(CCC)C(=O)C1=Cc2ccc(C3=NCc4ccccc4N3)cc2N=C(N)C1 [Example 1, 2-Amino-8-(1,4-dihydroquinazolin-2-yl)-N,N-dipropyl-3H-1-benzazepine-4-carboxamide]
EC50 (human TLR7): > 100000 nM | EC50 (human TLR8): 3 nM

CCCN(CC1CC1)C(=O)C1=Cc2ccc(C3=NCc4ccccc4N3)cc2N=C(N)C1 [Example 3, 2-Amino-N-(cyclopropylmethyl)-8-(1,4-dihydroquinazolin-2-yl)-N-propyl-3H-1-benzazepine-4-carboxamide]
EC50 (human TLR7): > 100000 nM | EC50 (human TLR8): 6 nM

CCCN(CCC)C(=O)C1=Cc2ccc(C3=NC(C)(C)c4ccccc4N3)cc2N=C(N)C1 [Example 7, 2-Amino-8-(4,4-dimethyl-1H-quinazolin-2-yl)-N,N-dipropyl-3H-1-benzazepine-4-carboxamide]
EC50 (human TLR7): > 100000 nM | EC50 (human TLR8): 7 nM

CCCN(CC(C)C)C(=O)C1=Cc2ccc(C3=NCc4ccccc4N3)cc2N=C(N)C1 [Example 4, 2-Amino-8-(1,4-dihydroquinazolin-2-yl)-N-isobutyl-N-propyl-3H-1-benzazepine-4-carboxamide]
EC50 (human TLR7): > 100000 nM | EC50 (human TLR8): 11 nM

CCCN(CCC)C(=O)C1=Cc2ccc(C3=NCc4ccncc4N3)cc2N=C(N)C1 [Example 2, 2-Amino-8-(1,4-dihydropyrido[3,4-d]pyrimidin-2-yl)-N,N-dipropyl-3H-1-benzazepine-4-carboxamide]
EC50 (human TLR7): > 100000 nM | EC50 (human TLR8): 3 nM

CCCN(CCC)C(=O)C1=Cc2ccc(C3=NCc4c(Cl)cccc4N3)cc2N=C(N)C1 [Example 5, 2-Amino-8-(5-chloro-1,4-dihydroquinazolin-2-yl)-N,N-dipropyl-3H-1-benzazepine-4-carboxamide]
EC50 (human TLR8): 11 nM

CCCN(CCC)C(=O)C1=Cc2ccc(C3=NCc4c(F)cccc4N3)cc2N=C(N)C1 [Example 10, 2-Amino-8-(5-fluoro-1,4-dihydroquinazolin-2-yl)-N,N-dipropyl-3H-1-benzazepine-4-carboxamide]
EC50 (human TLR7): > 100000 nM | EC50 (human TLR8): 3 nM

CCCN(CCC)C(=O)C1=Cc2ccc(C3=NCc4cc(OC)ccc4N3)cc2N=C(N)C1 [Example 11, 2-Amino-8-(6-methoxy-1,4-dihydroquinazolin-2-yl)-N,N-dipropyl-3H-1-benzazepine-4-carboxamide]
EC50 (human TLR7): > 100000 nM | EC50 (human TLR8): 2 nM
